The target in one experiment is T1, Human FXIa (Homo sapiens, UniProt P03951).
T1 construct: Human FXIa (Enzyme Research Laboratories) was incubated; purchased Enzyme Research Laboratories
The experiment can be described thus: Determination of FXIa inhibitory activity in vitro (fluorogenic substrate Z-Gly-Pro-Arg-AFC). The following applies: selectivity, 25° C., residual enzyme activity (initial rate). The format is biochemical.

The target in another experiment is T2, Human Factor XIIa (Homo sapiens, UniProt P00748).
T2 construct: Human Factor XIIa (Enzyme Research Laboratories) was incubated; purchased Enzyme Research Laboratories
T2 sequence (P00748 373-615 limits assumed): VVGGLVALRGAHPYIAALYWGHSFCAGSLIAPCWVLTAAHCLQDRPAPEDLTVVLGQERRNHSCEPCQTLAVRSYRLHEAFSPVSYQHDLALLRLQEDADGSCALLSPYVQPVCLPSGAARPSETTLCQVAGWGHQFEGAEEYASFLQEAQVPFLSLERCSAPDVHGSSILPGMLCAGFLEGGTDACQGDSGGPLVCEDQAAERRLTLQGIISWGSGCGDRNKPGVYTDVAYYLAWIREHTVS
T2 sequence (P00748 20-372 partner limits assumed): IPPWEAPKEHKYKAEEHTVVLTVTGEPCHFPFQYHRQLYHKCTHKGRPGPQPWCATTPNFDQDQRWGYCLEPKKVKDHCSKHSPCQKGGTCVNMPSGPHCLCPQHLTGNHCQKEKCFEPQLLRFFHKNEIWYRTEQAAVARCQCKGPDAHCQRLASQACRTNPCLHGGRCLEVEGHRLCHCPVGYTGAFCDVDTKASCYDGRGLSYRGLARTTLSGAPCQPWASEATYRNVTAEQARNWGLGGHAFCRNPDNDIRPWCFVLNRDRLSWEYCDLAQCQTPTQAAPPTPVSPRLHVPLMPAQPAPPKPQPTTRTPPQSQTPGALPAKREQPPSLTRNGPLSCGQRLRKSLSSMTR
The experiment can be described thus: Determination of FXIIa inhibitory activity in vitro (fluorogenic substrate H-DPro-Phe-Arg-AFC). The following applies: 25° C., residual enzyme activity (initial rate). Format: biochemical.

Bounds are passed on as bounds.

T1 sequence (P03951 388-625 limits assumed): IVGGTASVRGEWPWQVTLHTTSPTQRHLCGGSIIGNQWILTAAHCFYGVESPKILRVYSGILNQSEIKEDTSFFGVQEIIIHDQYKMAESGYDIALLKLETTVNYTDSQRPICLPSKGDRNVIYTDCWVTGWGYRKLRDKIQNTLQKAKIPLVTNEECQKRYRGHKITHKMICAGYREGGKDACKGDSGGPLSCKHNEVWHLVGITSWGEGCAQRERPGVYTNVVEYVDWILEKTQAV
T1 sequence (P03951 19-387 partner limits assumed): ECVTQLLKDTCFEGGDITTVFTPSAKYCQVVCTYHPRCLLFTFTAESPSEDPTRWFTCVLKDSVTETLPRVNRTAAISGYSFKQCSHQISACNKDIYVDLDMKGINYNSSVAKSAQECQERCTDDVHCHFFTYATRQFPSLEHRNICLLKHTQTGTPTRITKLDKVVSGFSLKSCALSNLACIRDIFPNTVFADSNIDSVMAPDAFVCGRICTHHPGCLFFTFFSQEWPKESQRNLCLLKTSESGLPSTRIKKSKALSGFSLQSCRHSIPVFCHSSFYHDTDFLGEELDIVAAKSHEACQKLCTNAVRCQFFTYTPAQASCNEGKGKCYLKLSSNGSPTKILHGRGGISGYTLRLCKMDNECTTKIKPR

As for `Nc1nccc2cc(CNC(=O)c3cc(Cl)c(CNCC4CCN(c5ccncc5)CC4)s3)ccc12` [Example 2.36, N-[(1-Aminoisoquinolin-6-yl)methyl]-4-chloro-5-[({[1-(pyridin-4-yl)piperidin-4-yl]methyl}amino)methyl]thiophene-2-carboxamide], the IC50 (usually the concentration that gives 50% inhibition) against Human FXIa is 76.4 µM; against Human Factor XIIa, 1 to 3 µM.

In the case of `Nc1nccc2cc(CNC(=O)c3cc(Cl)c(CNCc4ccc(N5CCCC5=O)cc4)s3)ccc12` [Example 2.58], the values for the IC50 at Human FXIa and at Human Factor XIIa were more than 40 µM and 3 to 10 µM, respectively.

In the case of `Nc1nccc2cc(CNC(=O)c3cc(Cl)c(CN4CCN(c5ccncc5)CC4)s3)ccc12` [Example 5.12], the IC50 at Human FXIa was more than 40 µM; at Human Factor XIIa, 3 to 10 µM.

With `Nc1nccc2cc(CNC(=O)c3cc(Cl)c(CN4CCN(c5cccnc5)CC4)s3)ccc12` [Example 5.16], the figures for the IC50 against Human FXIa and at Human Factor XIIa were more than 40 µM and 3 to 10 µM, respectively.

`Nc1nccc2cc(CNC(=O)c3cc(Cl)c(CN4CCN(c5ccccn5)CC4)s3)ccc12` [Example 5.17]: the IC50 against Human FXIa was more than 40 µM; against Human Factor XIIa, 10 to 40 µM.

On to `Nc1nccc2cc(CNC(=O)c3cc(Cl)c(CN4CC[C@@H](Nc5cccnc5)C4)s3)ccc12` [Example 5.18, N-[(1-Amino-6-isoquinolyl)methyl]-4-chloro-5-[[(3R)-3-(3-pyridylamino)pyrrolidin-1-yl]methyl]thiophene-2-carboxamide], for which the results for the IC50 against Human FXIa and against Human Factor XIIa were 37.7 µM and 10 to 40 µM, respectively.

In the case of `Nc1nccc2cc(CNC(=O)c3cc(Cl)c(CN4Cc5ccncc5C4)s3)ccc12` [Example 5.19], the results for the IC50 against Human FXIa and at Human Factor XIIa were 29.3 µM and 3 to 10 µM, respectively.

In the case of `Cc1cc(C(=O)NCc2ccc3c(N)nccc3c2)sc1CN1CCN(c2ccncc2)CC1` [Example 5.20, N-[(1-Amino-6-isoquinolyl)methyl]-4-methyl-5-[[4-(4-pyridyl)piperazin-1-yl]methyl]thiophene-2-carboxamide], the IC50 against Human FXIa is more than 40 µM; against Human Factor XIIa, 10 to 40 µM.

On to `Nc1nccc2cc(CNC(=O)c3cc(Cl)c(CN4CC[C@H](Nc5cccnc5)C4)s3)ccc12` [Example 5.21], for which the IC50 on Human FXIa was more than 40 µM; on Human Factor XIIa, 10 to 40 µM.

Regarding `Nc1nccc2cc(CNC(=O)c3cc(Cl)c(CN4CCc5ccncc5C4)s3)ccc12` [Example 5.22], the results for the IC50 against Human FXIa and on Human Factor XIIa were more than 40 µM and 3 to 10 µM, respectively.

For `Nc1nccc2c1CC[C@H]2NC(=O)c1cc(Cl)c(CN2CCN(c3ccncc3)CC2)s1` [Example 5.23, N-[(5R)-1-Amino-6,7-dihydro-5H-cyclopenta[c]pyridin-5-yl]-4-chloro-5-[[4-(4-pyridyl)piperazin-1-yl]methyl]thiophene-2-carboxamide], the IC50 is 8.35 µM against Human FXIa and 10 to 40 µM at Human Factor XIIa.

For `Cc1cc(C(=O)NCc2ccc3c(N)nccc3c2)sc1CN1CCCN(c2ccncc2)CC1` [Example 5.24, N-((1-Aminoisoquinolin-6-yl)methyl)-4-methyl-5-((4-(pyridin-4-yl)-1,4-diazepan-1-yl)methyl) thiophene-2-carboxamide], the figures for the IC50 against Human FXIa and against Human Factor XIIa were more than 40 µM and 3 to 10 µM, respectively.

Take `Cc1cc(C(=O)NCc2ccc3c(N)nccc3c2)sc1CN1CC(Oc2ccncc2)C1` [Example 5.25, N-[(1-Amino-6-isoquinolyl)methyl]-4-methyl-5-[[3-(4-pyridyloxy)azetidin-1-yl]methyl]thiophene-2-carboxamide]: the IC50 against Human FXIa is more than 40 µM; against Human Factor XIIa it was 10 to 40 µM.

Turning to `Cc1cc(C(=O)NCc2ccc3c(N)nccc3c2)sc1CN1CCN(c2ccncn2)CC1` [Example 5.26, N-((1-Aminoisoquinolin-6-yl)methyl)-4-methyl-5-((4-(pyrimidin-4-yl)piperazin-1-yl)methyl) thiophene-2-carboxamide], the 50% inhibitory concentration (IC50) on Human FXIa is more than 40 µM; against Human Factor XIIa, 10 to 40 µM.

On to `Cc1cc(C(=O)NCc2ccc3c(N)nccc3c2)sc1CN1CCN(c2ccn(C)c(=O)c2)CC1` [Example 5.27], for which the half-inhibitory concentration (IC50) was more than 40 µM on Human FXIa and 10 to 40 µM against Human Factor XIIa.

As for `Cc1cc(C(=O)NCc2ccc3c(N)nccc3c2)sc1CN1CCN(c2cnn(C)c2)CC1` [Example 5.28], the IC50 against Human FXIa is more than 40 µM; against Human Factor XIIa, 10 to 40 µM.

With `Cc1cc(C(=O)NCc2ccc3c(N)nccc3c2)sc1CN1CCN(c2cc[nH]c(=O)c2)CC1` [Example 5.29], the IC50 was 38.5 µM against Human FXIa and 10 to 40 µM at Human Factor XIIa.

For the molecule `CNS(=O)(=O)c1sc(C(=O)NCc2ccc3c(N)nccc3c2)cc1Br` [Example 25.07], the results for the IC50 on Human FXIa and against Human Factor XIIa were more than 40 µM and 1 to 3 µM, respectively.

For the molecule `Nc1nccc2cc(CNC(=O)c3cc(Cl)c(Cc4ccccc4)s3)ccc12` [Example 25.08], the results for the IC50 against Human FXIa and at Human Factor XIIa were more than 40 µM and 10 to 40 µM, respectively.

Regarding `CN1CCC(c2ccc(C(=O)NCc3ccc4c(N)nccc4c3)s2)CC1` [Example 25.09], the results for the IC50 on Human FXIa and at Human Factor XIIa were more than 40 µM and 10 to 40 µM, respectively.

With `CN1CCC(Cc2sc(C(=O)NCc3ccc4c(N)nccc4c3)cc2Cl)CC1` [Example 25.10], the figures for the concentration for half-maximal inhibition (IC50) at Human FXIa and against Human Factor XIIa were more than 40 µM and 3 to 10 µM, respectively.

Take `Cc1cc(CN)cc(C)c1CNC(=O)c1cc(Cl)c(C)s1` [Example 25.102, N-(4-(Aminomethyl)-2,6-dimethylbenzyl)-4-chloro-5-methylthiophene-2-carboxamide]: the half-inhibitory concentration (IC50) against Human FXIa was more than 40 µM; against Human Factor XIIa it was 3 to 10 µM.

Regarding `CN1CCC(Cn2c(C(=O)NCc3ccc4c(N)nccc4c3)cc3ccccc32)CC1` [Example 25.201], the IC50 was more than 40 µM at Human FXIa and 3 to 10 µM against Human Factor XIIa.

Regarding `CCN1CCC(Cn2c(C(=O)NCc3ccc4c(N)nccc4c3)nc3ccccc32)CC1` [Example 25.202], the values for the IC50 against Human FXIa and against Human Factor XIIa were more than 40 µM and 1 to 3 µM, respectively.

For `Nc1nccc2cc(CNC(=O)c3cc4c(Cl)cccc4s3)ccc12` [Example 25.203, N-((1-Aminoisoquinolin-6-yl)methyl)-4-chlorobenzo[b]thiophene-2-carboxamide], the IC50 against Human FXIa is more than 40 µM; against Human Factor XIIa, 1 to 3 µM.

As for `Nc1nccc2cc(CNC(=O)c3cc4c(Cl)cccc4[nH]3)ccc12` [Example 25.207], the figures for the IC50 against Human FXIa and against Human Factor XIIa were more than 40 µM and 1 to 3 µM, respectively.

As for `CN1CCC(CNc2cnn(C)c2C(=O)NCc2ccc3c(N)nccc3c2)CC1` [Example 26.01], the IC50 against Human FXIa is more than 40 µM; on Human Factor XIIa it was 3 to 10 µM.

As to `Cc1n[nH]c(C(=O)NCc2ccc3c(N)nccc3c2)c1NCC1CCN(C)CC1` [Example 26.02], the 50% inhibitory concentration (IC50) against Human FXIa is more than 40 µM; against Human Factor XIIa, 10 to 40 µM.

In the case of `Cc1cc(OCC2CCN(C)CC2)c(C(=O)NCc2ccc3c(N)nccc3c2)s1` [Example 26.04], the values for the IC50 on Human FXIa and on Human Factor XIIa were more than 40 µM and 10 to 40 µM, respectively.

Consider `Cc1cc(NCC2CCN(C)CC2)c(C(=O)NCc2ccc3c(N)nccc3c2)s1` [Example 26.05, N-((1-Aminoisoquinolin-6-yl)methyl)-5-methyl-3-(((1-methylpiperidin-4-yl)methyl)amino) thiophene-2-carboxamide], for which the IC50 on Human FXIa is more than 40 µM; on Human Factor XIIa, 1 to 3 µM.

As for `Cc1csc(C(=O)NCc2ccc3c(N)nccc3c2)c1NC(=O)C1CCN(C)CC1` [Example 26.07], the IC50 on Human FXIa is more than 40 µM; against Human Factor XIIa, 10 to 40 µM.

For the molecule `Cc1c(Cl)sc(C(=O)NCc2ccc3c(N)nccc3c2)c1NCC1CCN(C)CC1` [Example 26.09], the IC50 was more than 40 µM at Human FXIa and 1 to 3 µM on Human Factor XIIa.

For the molecule `Cc1sc(C(=O)NCc2ccc3c(N)nccc3c2)c(NCC2CCN(C)CC2)c1Cl` [Example 26.10, N-((1-Aminoisoquinolin-6-yl)methyl)-4-chloro-5-methyl-3-(((1-methylpiperidin-4-yl)methyl)amino) thiophene-2-carboxamide], the figures for the IC50 on Human FXIa and at Human Factor XIIa were more than 40 µM and 1 to 3 µM, respectively.

Regarding `CN1CCC(CNc2ncsc2C(=O)NCc2ccc3c(N)nccc3c2)CC1` [Example 26.16, N-((1-Aminoisoquinolin-6-yl)methyl)-4-(((1-methylpiperidin-4-yl)methyl)amino)thiazole-5-carboxamide], the half-inhibitory concentration (IC50) at Human Factor XIIa was in the range of 1 to 3 µM.

`CN1CCC(CCCn2nccc2C(=O)NCc2ccc3c(N)nccc3c2)CC1` [Example 35.08] showed an IC50 on Human Factor XIIa of 1 to 3 µM.

`CCOc1ccc(Cn2nccc2C(=O)NCc2ccc3c(N)nccc3c2)cc1` [Example 35.09] had a 50% inhibitory concentration (IC50) at Human Factor XIIa of 10 to 40 µM.

Regarding `CN1CCC(CCn2nccc2C(=O)NCc2cc3c(N)nccc3s2)CC1` [Example 46.01, N-((4-aminothieno[3,2-c]pyridin-2-yl)methyl)-1-(2-(1-methylpiperidin-4-yl)ethyl)-1H-pyrazole-5-carboxamide], the IC50 against Human Factor XIIa lay within 10 to 40 µM.

Consider `Cc1c(C(=O)NCc2ccc3c(N)nccc3c2)cc(-c2ccccc2)n1CCCN1CCOCC1` [Example 51.01], for which the concentration for half-maximal inhibition (IC50) on Human Factor XIIa lay in the range of 10 to 40 µM.

As to `CN1CCC(CCn2ccc(C(=O)NCc3ccc4c(N)nccc4c3)n2)CC1` [Example 51.06], the 50% inhibitory concentration (IC50) against Human Factor XIIa was 1 to 3 µM.

`CN1CCC(CCCn2ccc(C(=O)NCc3ccc4c(N)nccc4c3)n2)CC1` [Example 51.07] came in with a half-maximal inhibitory concentration (IC50) on Human Factor XIIa of 1 to 3 µM.

The molecule `CC(=O)N1CCC(CCn2ccc(C(=O)NCc3ccc4c(N)nccc4c3)n2)CC1` [Example 51.08] yielded an IC50 on Human Factor XIIa of 10 to 40 µM.

Source of the values: patent publication US20220289727A1, “ENZYME INHIBITORS” (KALVISTA PHARMACEUTICALS LIMITED, priority 2019, published 2022).
